# pIC50: −log10 of the molar value.
# Assays:
# Sialidase-3 = biological target: T1, Sialidase-3 (Homo sapiens, UniProt Q9UQ49); experiment: Inhibition of human NEU3 expressed in HEK293A cells as substrate incubated for 1 hr by spectrofluorometric analysis; set-up: species or system HEK293
# T1 sequence (Q9UQ49 whole entry): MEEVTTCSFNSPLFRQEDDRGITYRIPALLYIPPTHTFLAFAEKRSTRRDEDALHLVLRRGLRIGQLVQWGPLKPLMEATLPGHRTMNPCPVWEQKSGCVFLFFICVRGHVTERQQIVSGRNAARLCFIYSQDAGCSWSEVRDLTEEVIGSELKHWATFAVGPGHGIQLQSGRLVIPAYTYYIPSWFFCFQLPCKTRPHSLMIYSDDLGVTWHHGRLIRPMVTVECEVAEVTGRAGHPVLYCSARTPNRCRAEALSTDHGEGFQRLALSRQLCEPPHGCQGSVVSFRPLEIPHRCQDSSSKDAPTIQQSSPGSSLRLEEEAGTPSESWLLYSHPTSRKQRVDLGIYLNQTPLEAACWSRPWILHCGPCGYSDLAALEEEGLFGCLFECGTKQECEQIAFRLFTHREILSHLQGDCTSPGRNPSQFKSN
# [1] = Inhibition of Newcastle disease virus neuraminidase using 4-MUNeu5Ac as substrate incubated for 15 mins by spectrofluorometric analysis; set-up: species or system avian paramyxovirus 1
smiles,measurement,setting,value
CO[C@@]1(C(=O)O)C=C[C@@H](NC(C)=O)[C@H]([C@H](O)[C@H](O)CO)O1,pIC50,Sialidase-3,< 3.00
same,pIC50,[1],< 3.00
[N-]=[N+]=N[C@H]1C=C(C(=O)O)O[C@@H]([C@H](O)[C@H](O)CO)[C@@H]1NC(=O)C(F)(F)C(F)(F)C(F)(F)F,pIC50,[1],6.67
CCCCCCCCS[C@@]1(C(=O)O)C=C[C@@H](NC(C)=O)[C@H]([C@H](O)[C@H](O)CO)O1,pIC50,Sialidase-3,< 3.00
same,pIC50,[1],3.39
CC(=O)N[C@@H]1C=C[C@@](OC(C)C)(C(=O)O)O[C@H]1[C@H](O)[C@H](O)CO,pIC50,Sialidase-3,< 3.00
same,pIC50,[1],3.83
CC(=O)N[C@H]1[C@H]([C@H](O)[C@H](O)CO)OC(C(=O)O)=C[C@@H]1O [NEU5AC2EN],pIC50,Sialidase-3,5.62
same,pIC50,[1],4.89
CCCCO[C@@]1(C(=O)O)C=C[C@@H](NC(C)=O)[C@H]([C@H](O)[C@H](O)CO)O1,pIC50,Sialidase-3,< 3.00
same,pIC50,[1],3.31
CCCO[C@@]1(C(=O)O)C=C[C@@H](NC(C)=O)[C@H]([C@H](O)[C@H](O)CO)O1,pIC50,Sialidase-3,< 3.00
same,pIC50,[1],3.29
CCO[C@@]1(C(=O)O)C=C[C@@H](NC(C)=O)[C@H]([C@H](O)[C@H](O)CO)O1,pIC50,Sialidase-3,< 3.00
same,pIC50,[1],3.42
CO[C@]1(C(=O)O)C=C[C@@H](NC(C)=O)[C@H]([C@H](O)[C@H](O)CO)O1,pIC50,Sialidase-3,< 3.00
same,pIC50,[1],< 3.00
CC(=O)N[C@@H]1C=C[C@](OC(C)C)(C(=O)O)O[C@H]1[C@H](O)[C@H](O)CO,pIC50,Sialidase-3,< 3.00
same,pIC50,[1],3.29
O=C(O)C1=C[C@H](O)[C@@H](NC(=O)C(F)(F)F)[C@H]([C@H](O)[C@H](O)CO)O1,pIC50,Sialidase-3,5.41
same,pIC50,[1],5.61
CCS[C@]1(C(=O)O)C=C[C@@H](NC(C)=O)[C@H]([C@H](O)[C@H](O)CO)O1,pIC50,Sialidase-3,< 3.00
same,pIC50,[1],4.00
CCS[C@@]1(C(=O)O)C=C[C@@H](NC(C)=O)[C@H]([C@H](O)[C@H](O)CO)O1,pIC50,Sialidase-3,< 3.00
same,pIC50,[1],3.61

# Source: ChEMBL document CHEMBL4725258, “2β-3,4-Unsaturated sialic acid derivatives: Synthesis optimization, and biological evaluation as Newcastle disease virus hemagglutinin-neuraminidase inhibitors” (Bioorg Med Chem, 2020)
